Test results as given in patent publication EP0361645B1, “Organic hydrazine derivatives for pharmaceutical use” (ROHM AND HAAS COMPANY, priority 1988, dated 1990).

System: Kr cells
Assay: Process elaboration and inhibition of cell proliferation in Kr cells
Type: cell-based, Drosophila
Settings: Drosophila melanogaster; 48 hours incubation; initial cell density 2 X 10^6 cells/ml
Experimental: The invention will now be further described by way of exemplification and by reference to the drawings in which; • Figure 1. Both 20-hydroxyecdysone and Example No. 3 induce process elaboration (A) and inhibition of cell proliferation (B) in Kr cells in a dose-dependent manner. Initial cell density was 2 X 10^6 cells/ml; after incubation of 1 ml aliquots of the cells with the compound for 48 hours the cells were triturated gently and the percentage of cells responding (with processes longer than approximately 17 um, see Cherbas et al. 189 Wilhelm Roux's Arch. 1 (1980)) and total cell density was determined by hemocytom- eter counting, relative to ethanol (1 ul)-treated controls. Determinations were in triplicate for each dose. […] Induction of acetylcholinesterase by varying concentrations of 20-hydroxyecdysone and Example No. 3. Kr cells at an initial density of 3 X 10^6 cells/ml (10 ml per sample) were incubated with the agonist for three days. After harvesting, by centrifugation at 3000 X g, the cell pellets were washed with Robb's Drosophila saline (18, 2 X 5 ml) at 4 ° C, then lysed by sonication in 1 ml of phosphate buffer (pH 7.4, I = 0.1 M) containing 0.5 M NaCI, 0.25 M EDTA and 0.5% TRITON? X-100. See Cherbas, 197 Science 275 (1977). Triton is a registered trademark of Rohm and Haas Company for a alkylaryl polyoxyethylene glycol surfactant. After centrifugation at 16,000 X g, the supernatants were assayed for acetylcholinesterase activity by an adaptation of the method of Ellman et al., 7 Biochem. Pharmacol. 88 (1961), by subtracting out any 412 nm absorbance observed in incubations in the presence of 2 X 10-5 eserine sulfate. Thus reaction mixtures contained 50 ul of enzyme extract, 20 ul eserine (blank tubes only) and 1.0 ml of 0.5 mM acetylthiocholine, 0.3 mM dithiobisnitrobenzoic acid in phosphate buffer (pH 7.4, I = 0.1 M). Incubations were at 25 ° C for two hours; reactions in active tubes were terminated by addition of eserine. Absorbance at 412 nm was then measured. Protein concentration in extracts was measured by the Biorad method. […] Scatchard plot of ^3H-ponasterone A binding to Kr cell cytosolic receptor extracts in the presence of differing concentrations of Example No. 3. Cytosolic extract preparation and ecdysteroid receptor assays were essentially as described in Sage, 111 Meth. in Enzymol. 458 (1985). Example No. 3 was added in 1 ul DMSO to 50 ul of radioligand in 10 mM Tris buffer (pH 7.2) and 50 ul of undiluted cytosol extract. […] Ecdysteroid titers were measured by a radioimmunoassay adapted from Warren et al., 40 Experientia 393 (1984) with Protein A-Staph. aureus suspension (Sigma) used as the reagent to separate bound from free ligand. […]

| Structure (SMILES) | EC50 |
| --- | --- |
| CC(C)(O)CC[C@@H](O)[C@](C)(O)[C@H]1CC[C@@]2(O)C3=CC(=O)[C@@H]4C[C@@H](O)[C@@H](O)C[C@]4(C)[C@H]3CC[C@]12C [20-hydroxyecdysone, reference compound] | 35 nM |
| CC(C)(C)N(NC(=O)c1ccccc1)C(=O)c1ccccc1 [Example No. 3, N'-t-butyl-N,N'-dibenzoylhydrazine] | 4800 nM |
